The subject of assay [1] is Ramos. Kind of assay: AlamarBlue viability assay. Particulars: cytotoxicity, 24 h, read-out: IC50 (Ramos). The assay is classed as cell-based, human.
Method: The resazurin reduction assay, which is also known as AlamarBlue® assay, was used for the determination of cell viability in all cytotoxicity determinations shown in the present work, as previously described [22]. Briefly, cells were seeded at a specific density depending on the incubation time (24 h: 1 × 10^6 cells/ml) in a 96-well plate and incubated with increasing compound concentrations (0.01–30 µM). After the specified treatment time, resazurin (Sigma, #R7017) was added to a final concentration of 40 µM. […] The viability of control cells was set to 100% and all other values were normalized to the control condition, the dose-response curves were then fitted with Prism v7.01 (GraphPad software, La Jolla, CA, USA). The reduction of resazurin to resorufin is proportional to aerobic respiration; therefore, it is used as a measure for the cell viability and cytotoxicity of a tested compound.
The subject of assay [2] is retinoblastoma (RB) protein phosphorylation. Kind of assay: immunopurification of RB from Ramos cells. The assay is classed as cell-based, human. On the procedure:
For immunopurification (IP) the Dynabeads^TM Protein G Immunoprecipitation kit from Invitrogen (#10007D) was used. For IP, 2 × 10^6 cells were seeded in a 24-well plate and treated with the appropriate compound. After incubation, cells were lysed with NP-40 containing lysis buffer (Hepes-NaOH 50 mM pH 7.5, NaCl 150 mM, NP-40 1% v/v, MgCl2 2.5 mM, 1x Protease inhibitor (cOmplete^TM, EDTA-free Protease Inhibitor Cocktail), 1x Phosphatase Inhibitor (PhosSTOP^TM)) for 30 min. A protein content of 50 µg per IP was used, the protein concentration was measured by Bradford assay (Bio-Rad #5000006) with the photometer. Protein G is conjugated to the magnetic Dynabeads^TM. In the first step, the Dynabeads^TM were incubated for 10 min with the specific RB antibody (Abcam #ab181616; rabbit), which was used in a dilution of 1:80. The antibody bound to the conjugated protein G and a bead-antibody complex was formed. By placing the tube on a magnet, the beads were easily separated from the solution and the supernatant could be removed. The bead-antibody complex was washed once with Ab binding and washing buffer. In the second step, the cell lysate was incubated for 10 min with the bead-antibody complex to allow the RB protein from the lysate to bind to the antibody. The bead complex was washed several times with washing buffer by placing the tube on the magnet and removing the supernatant. […]

Where two headings read alike, the source gives them in different places.

Broadly, the IC50 is the concentration that inhibits the measured activity by half.

In the case of `COc1ccnc2[nH]cc(-c3cc(N)nc(N)c3)c12` [meriolin 16], the figures for the IC50 in assay [1] (as given in text), in assay [1] (listed as Meriolin 16) and in assay [1] were 0.02 to 0.03 µM, 0.02 µM and 0.03 µM, respectively. Moreover, the “phosphorylation of RB at p-Ser612 and p-Thr821 (immunopurified RB)” value in assay [2] (1 µM, 4 h) is given as “less phosphorylated”; in assay [2] (24 h), “completely abrogated”.

(Values after publication PMC11167047 (Cell Death Discovery, 2024).)
